Measured values taken from patent US4683227A, “Antibiotic derivatives of 7β-[2-(thiazol-4-yl)acetamide]-3-chloro-3-cephem-4-carboxylic acids and compositions and method of use thereof” (Eli Lilly and Company, priority 1985, dated 1987).
In brackets after ≈: the same amount, converted by molar mass. Read-outs that look alike come from different tables or passages of the source.

Columns and labels:
[1] = tested on: Staphylococcus epidermidis 222; test: Minimum inhibitory concentration, standard agar dilution method; type: cell-based
Source text: (§1) The method of this invention is useful in treating infections caused by a variety of microorganisms pathogenic to man and animals. […] The concentrations were obtained by the standard agar dilution method.

[2] = tested on: Staphylococcus epidermidis Epil; test: as above; type: cell-based
Source text: as §1

[3] = tested on: Streptococcus sp. group D 2041; test: as above; type: cell-based; details: for MIC: read-out: Minimum Inhibitory Concentration
Source text: as §1

Escherichia coli TEM = test: as above; type: cell-based
Source text: as §1

[4] = tested on: Klebsiella pneumoniae KAE; test: as above; type: cell-based; details: for MIC: read-out: Minimum Inhibitory Concentration
Source text: as §1

[5] = tested on: Staphylococcus aureus X400; test: as above; type: cell-based
Source text: as §1

[6] = tested on: Klebsiella pneumoniae X26; test: as above; type: cell-based
Source text: as §1

[7] = tested on: Haemophilus influenzae 76; test: as above; type: cell-based
Source text: as §1

[8] = tested on: Streptococcus pyogenes C203; test: as above; type: cell-based
Source text: as §1

[9] = tested on: Staphylococcus aureus V41; test: as above; type: cell-based
Source text: as §1

Escherichia coli EC14 = test: as above; type: cell-based
Source text: as §1

Escherichia coli N10 = test: as above; type: cell-based
Source text: as §1

[10] = tested on: Staphylococcus aureus S13E; test: as above; type: cell-based; details: for Minimum Inhibitory Concentration: Staphylococcus aureus S13E, agar dilution; for MIC: Staphylococcus aureus, S13E, read-out: Minimum Inhibitory Concentration
Source text: as §1

[11] = tested on: Streptococcus pneumoniae PARK I; test: as above; type: cell-based
Source text: as §1

[12] = tested on: Streptococcus sp. group D X66; test: as above; type: cell-based; details: for MIC: read-out: Minimum Inhibitory Concentration
Source text: as §1

[13] = tested on: Klebsiella pneumoniae X68; test: as above; type: cell-based
Source text: as §1

[14] = tested on: Haemophilus influenzae C.L.; test: as above; type: cell-based
Source text: as §1

[15] = tested on: Staphylococcus aureus X1.1; test: as above; type: cell-based
Source text: as §1

[16] = Oral bioavailability in dogs; type: in vivo; details: female mongrel dogs
[17] = Peroral bioavailability in mice (oral vs subcutaneous dosage); type: in vivo, mice (Cox Male Standard Mice, Lai:COX (Standard) BR); details: 20 mg/kg; for Oral Bioavailability % BA (AUC): area under plasma curves after oral vs subcutaneous dosage; for Oral Bioavailability % BA (URINE): urinary excretion after oral vs subcutaneous dosage
Source text: Cox Male Standard Mice, Lai:COX (Standard) BR were housed overnight in a wire-bottom cage with free access to water and liquid diet. The result was a gastro-intestinal tract free of solids, yet without the nutritional shock and coprophagy that often accompanies overnight starvation of rodents. After dosing, the mice were housed individually in ventilated wide-mouth jars containing a layer of buffer beneath an elevated wire screen floor. At intervals after dosing, mice were removed from the jars and heparinized blood, stomach, and small intestine were removed from the animals. The urinary bladder was removed and combined with the urine collected in the buffer in the bottom of the jars. Urine, washings from the stomach and small intestine, and plasma prepared from blood samples were assayed for antibiotic activity. The test procedure used is a modification of the test procedure described by W. E. Wright, et al., J. Antibiotics, 32:1155 (1979).
Dose solutions were prepared in saline at 2 mg/ml for subcutaneous or oral administration. In all cases the compounds were administered to the mice at 20 mg/kg on an equal weight basis.
The biological activity of the samples was determined by a conventional agar well procedure using Bacillus subtilis ATCC 6633 as the test organism.
Peroral bioavailability (BA) of the test compounds in mice can be determined either by comparison of the area under the plasma curves (AUC) after oral or subcutaneous dosage, or by comparison of the urinary excretion of the dose after oral and subcutaneous dosage. Calculations of BA by either method are made with the following formulae: [formula]

[18] = in vivo, po; cited from earlier work
[19] = Streptococcus sp. group D 2041, agar dilution
[20] = Klebsiella pneumoniae KAE, agar dilution
[21] = Staphylococcus aureus X400, agar dilution
[22] = Staphylococcus aureus V41, agar dilution
[23] = Streptococcus sp. group D X66, agar dilution
[24] = Staphylococcus aureus X400, agar dilution, read-out: Minimum Inhibitory Concentration
[25] = Staphylococcus aureus V41, agar dilution, read-out: Minimum Inhibitory Concentration

Row | SMILES | Minimum Inhibitory Concentration [1] [µg/mL] | Minimum Inhibitory Concentration [2] [µg/mL] | Minimum Inhibitory Concentration [3, 19] [µg/mL] | Minimum Inhibitory Concentration (Escherichia coli TEM) [µg/mL] | Minimum Inhibitory Concentration [4, 20] [µg/mL] | Minimum Inhibitory Concentration [5, 21] [µg/mL] | Minimum Inhibitory Concentration [6] [µg/mL] | MIC [1] [µg/mL] | MIC [2] [µg/mL] | MIC (Escherichia coli TEM) [µg/mL] | MIC [6] [µg/mL] | MIC [7] [µg/mL] | MIC [8] [µg/mL] | MIC (Escherichia coli EC14) [µg/mL] | MIC (Escherichia coli N10) [µg/mL] | MIC [10] [µg/mL] | MIC [11] [µg/mL] | MIC [13] [µg/mL] | MIC [14] [µg/mL] | MIC [15] [µg/mL] | also measured
1 | Nc1nc(CC(=O)N[C@@H]2C(=O)N3C(C(=O)O)=C(Cl)CS[C@H]23)ns1 [Compound 1] | 4 | 16 | 128 | 16 | > 128 | > 128 | 4 | – | – | – | – | – | – | – | – | – | – | – | – | – | Minimum Inhibitory Concentration [7]: 4 µg/mL; Minimum Inhibitory Concentration [8]: 1 µg/mL; Minimum Inhibitory Concentration [9, 22]: 128 µg/mL; Minimum Inhibitory Concentration (Escherichia coli EC14): 8 µg/mL; Minimum Inhibitory Concentration (Escherichia coli N10): 32 µg/mL; Minimum Inhibitory Concentration [10]: 64 µg/mL; Minimum Inhibitory Concentration [11]: 2 µg/mL; Minimum Inhibitory Concentration [12, 23]: > 128 µg/mL; Minimum Inhibitory Concentration [13]: 8 µg/mL; Minimum Inhibitory Concentration [14]: 4 µg/mL; Minimum Inhibitory Concentration [15]: 4 µg/mL
2 | Nc1nc(CC(=O)N[C@@H]2C(=O)N3C(C(=O)O)=C(Cl)CS[C@H]23)cs1 [Compound 2, 7β-[2-(2-Aminothiazol-4-yl)acetamido]-3-chloro-3-cephem-4-carboxylic acid] | – | – | – | – | – | – | – | 1 (≈ 2.67 µM) | 4 (≈ 10.7 µM) | 2 (≈ 5.34 µM) | 0.25 (≈ 0.667 µM) | 0.5 (≈ 1.33 µM) | 0.06 (≈ 0.16 µM) | 1 (≈ 2.67 µM) | 4 (≈ 10.7 µM) | 32 (≈ 85.4 µM) | 0.5 (≈ 1.33 µM) | 0.5 (≈ 1.33 µM) | 0.5 (≈ 1.33 µM) | 1 (≈ 2.67 µM) | bioavailability ([16]; oral, calculated with the above-described formulae): 28%; Oral Bioavailability % BA (AUC) [17]: 62%; Oral Bioavailability % BA (URINE) [17]: 64%; MIC [3, 19]: 32 µg/mL (≈ 85.4 µM); MIC [4, 20]: 16 µg/mL (≈ 42.7 µM); MIC [5, 24]: > 128 µg/mL; MIC [9, 25]: 32 µg/mL (≈ 85.4 µM); MIC [12, 23]: > 128 µg/mL
3 | O=C(Cc1csc(Cl)n1)N[C@@H]1C(=O)N2C(C(=O)O)=C(Cl)CS[C@H]12 [Compound 3, 7β-[2-(2-Chlorothiazol-4-yl)acetamido]-3-chloro-3-cephem-4-carboxylic acid] | – | – | – | – | – | – | – | 2 (≈ 5.07 µM) | 8 (≈ 20.3 µM) | 16 (≈ 40.6 µM) | 4 (≈ 10.1 µM) | 2 (≈ 5.07 µM) | 0.25 (≈ 0.634 µM) | 16 (≈ 40.6 µM) | 32 (≈ 81.2 µM) | 64 (≈ 162 µM) | 0.5 (≈ 1.27 µM) | 8 (≈ 20.3 µM) | 2 (≈ 5.07 µM) | 1 (≈ 2.54 µM) | Oral Bioavailability % BA (AUC) [17]: 66%; Oral Bioavailability % BA (URINE) [17]: 56%; MIC [3, 19]: 64 µg/mL (≈ 162 µM); MIC [4, 20]: 128 µg/mL (≈ 325 µM); MIC [5, 24]: > 128 µg/mL; MIC [9, 25]: 64 µg/mL (≈ 162 µM); MIC [12, 23]: 128 µg/mL (≈ 325 µM)
4 | Cc1nc(CC(=O)N[C@@H]2C(=O)N3C(C(=O)O)=C(Cl)CS[C@H]23)cs1 [Compound 4, 7β-[2-(2-Methylthiazol-4-yl)acetamido]-3-chloro-3-cephem-4-carboxylic acid] | – | – | – | – | – | – | – | 2 (≈ 5.35 µM) | 8 (≈ 21.4 µM) | 16 (≈ 42.8 µM) | 2 (≈ 5.35 µM) | 1 (≈ 2.67 µM) | 0.25 (≈ 0.669 µM) | 16 (≈ 42.8 µM) | 32 (≈ 85.6 µM) | 128 (≈ 342 µM) | 1 (≈ 2.67 µM) | 8 (≈ 21.4 µM) | 2 (≈ 5.35 µM) | 1 (≈ 2.67 µM) | Oral Bioavailability % BA (AUC) [17]: 57%; Oral Bioavailability % BA (URINE) [17]: 66%; MIC ([3]; Streptococcus): 128 µg/mL (≈ 342 µM); MIC ([4]; Klebsiella pneumoniae): > 128 µg/mL; MIC ([5]; Staphylococcus aureus, X400, read-out: Minimum Inhibitory Concentration): > 128 µg/mL; MIC ([9]; Staphylococcus aureus, V41, read-out: Minimum Inhibitory Concentration): 128 µg/mL (≈ 342 µM); MIC ([12]; Streptococcus): > 128 µg/mL
5 | O=C(Cc1csc(-c2ccccc2)n1)N[C@@H]1C(=O)N2C(C(=O)O)=C(Cl)CS[C@H]12 [Compound 5, 7β-[2-(2-Phenylthiazol-4-yl)acetamido]-3-chloro-3-cephem-4-carboxylic acid] | – | – | – | – | – | – | – | 0.5 (≈ 1.15 µM) | 4 (≈ 9.18 µM) | > 128 | 8 (≈ 18.4 µM) | 0.5 (≈ 1.15 µM) | 0.06 (≈ 0.138 µM) | > 128 | > 128 | 16 (≈ 36.7 µM) | 0.125 (≈ 0.287 µM) | > 128 | 4 (≈ 9.18 µM) | 0.25 (≈ 0.574 µM) | MIC [3, 19]: 16 µg/mL (≈ 36.7 µM); MIC [4, 20]: > 128 µg/mL; MIC [5, 24]: 64 µg/mL (≈ 147 µM); MIC [9, 25]: 32 µg/mL (≈ 73.4 µM); MIC [12, 23]: 64 µg/mL (≈ 147 µM)
6 | O=C(Cn1cnnn1)N[C@@H]1C(=O)N2C(C(=O)O)=C(Cl)CS[C@H]12 [Compound 6] | 4 | 16 | 64 | 32 | > 128 | > 128 | 32 | – | – | – | – | – | – | – | – | – | – | – | – | – | Minimum Inhibitory Concentration [7]: 8 µg/mL; Minimum Inhibitory Concentration [8]: 0.5 µg/mL; Minimum Inhibitory Concentration [9, 22]: 32 µg/mL; Minimum Inhibitory Concentration (Escherichia coli EC14): 16 µg/mL; Minimum Inhibitory Concentration (Escherichia coli N10): 32 µg/mL; Minimum Inhibitory Concentration [10]: 32 µg/mL; Minimum Inhibitory Concentration [11]: 0.5 µg/mL; Minimum Inhibitory Concentration [12, 23]: 64 µg/mL; Minimum Inhibitory Concentration [13]: 32 µg/mL; Minimum Inhibitory Concentration [14]: 16 µg/mL; Minimum Inhibitory Concentration [15]: 2 µg/mL
7 | N#Cc1ncn(CC(=O)N[C@@H]2C(=O)N3C(C(=O)O)=C(Cl)CS[C@H]23)n1 [Compound 7] | 4 | 8 | 64 | 64 | > 128 | > 128 | 32 | – | – | – | – | – | – | – | – | – | – | – | – | – | Minimum Inhibitory Concentration [7]: 2 µg/mL; Minimum Inhibitory Concentration [8]: 0.25 µg/mL; Minimum Inhibitory Concentration [9, 22]: 128 µg/mL; Minimum Inhibitory Concentration (Escherichia coli EC14): 32 µg/mL; Minimum Inhibitory Concentration (Escherichia coli N10): 64 µg/mL; Minimum Inhibitory Concentration [10]: 128 µg/mL; Minimum Inhibitory Concentration [11]: 0.5 µg/mL; Minimum Inhibitory Concentration [12, 23]: 128 µg/mL; Minimum Inhibitory Concentration [13]: 64 µg/mL; Minimum Inhibitory Concentration [14]: 2 µg/mL; Minimum Inhibitory Concentration [15]: 2 µg/mL
8 | CC1(C)S[C@@H]2[C@H](NC(=O)COc3ccccc3)C(=O)N2[C@H]1C(=O)O [Penicillin V] | – | – | – | – | – | – | – | – | – | – | – | – | – | – | – | – | – | – | – | – | bioavailability ([16]; dog, urine recovery with time following intravenous and oral administration, read-out: bioavailability (percent of dose recovered in the urine)): 21%; oral bioavailability (area under the curves) ([16]; serum antibacterial levels with time following intravenous and oral administration): 11%
9 | N[C@@H](C(=O)N[C@@H]1C(=O)N2C(C(=O)O)=C(Cl)CS[C@H]12)c1ccccc1 [cefaclor] | – | – | – | – | – | – | – | – | – | – | – | – | – | – | – | – | – | – | – | – | absorption from the gastrointestinal tract [18]: high absorption
10 | CC1=C(C(=O)O)N2C(=O)[C@@H](NC(=O)[C@H](N)C3=CCC=CC3)[C@H]2SC1 [cephradine] | – | – | – | – | – | – | – | – | – | – | – | – | – | – | – | – | – | – | – | – | absorption from the gastrointestinal tract [18]: high absorption
